Measured values from patent US10888092B2, “Ether amines for enhanced sporicidal performance” (Ecolab USA Inc., priority 2016, dated 2021).
Marks after values point to notes of the source that are not given here.

Experiments:
bacterial spores = assay: Fabric swatches (ASTM E2274-09 protocol), simultaneous treatment (Example 5); type: cell-based; conditions: TABLE 7, exposure 10 minutes
Protocol: (§1) Various ether amines were tested for their efficiency in eradicating bacterial spores from fabric swatches. The fabric swatches were treated according to ASTM protocol for evaluating laundry sanitizers and disinfectants (ASTM E2274-09). The ASTM protocol provides more realistic conditions for laundering textiles, where the tested textiles are imbedded within a bundle of fabrics to mimic the ability of the composition to penetrate the fabric with less exposure to the wash solution.
Three different ether amine solutions were tested: DA-1214 (octyl/decyloxypropyl-1,3-diaminopropane), DA-1618 (dodecylketradecyloxypropyl-1,3-diaminopropane), and PA-14 (isodecyloxypropyl amine). Part I and Part II were both added together at the start of the experiment for a combined exposure time of 10 minutes. The solutions were made into deionized water as described in Example 1, with the pH adjusted to 9.0 by glycolic acid. However, PA-14 was already neutralized to pH 7 with sodium acetate. The log reduction of spores was measured in the wash solution and on the fabric swatch. The reduction of spores was compared to number of spores in the baseline treatment (water only).

spores [1] = assay: Peracid comparison, ASTM test on fabric swatches (Example 7); type: cell-based; conditions: TABLE 9; peracid 200 ppm alone; 10 min at 50° C.
Protocol: as §1
The use of different peracids was tested. Fabric swatches were treated using the ASTM test described in Example 5. Part I was prepared with 100 ppm ether amine (DA-1618). Part II was prepared with 200 ppm of peroxyacetic acid (“POAA”) or peroxyoctanoic acid (“POOA”). When both Part I and Part II were used, the chemicals were added simultaneously. The exposure time was 10 min at 50° C.

C. Diff. AATCC 43598 [2] = assay: Fabric swatches, consecutive vs. simultaneous treatment (Example 4); type: cell-based, Clostridium difficile; conditions: TABLE 6, ether amine 0 ppm 10 min, peracid 300 ppm 5 minutes
Protocol: (§2) Cotton fabric swatches (5 mm×5 mm) were inoculated with C. Diff. AATCC 43598 at 35° C. for 48 hours. After inoculation, the swatches were treated with a first solution comprising part I of the composition at 50° C. for a first exposure time; removed from the first solution with sterile forceps and immediately transferred into a second solution comprising part II of the composition for a second exposure time. In comparative treatments, the solutions included only water. After treatment, the number of surviving spores was evaluated, and the log reduction of spores was compared to the comparative treatment (water only).
Consecutive and simultaneous treatment with low concentration (100 ppm) of ether amine and peracetic acid was tested on fabric squares. The fabric squares were treated as in Example 1 with treatment times of 10 min (part I) and 5 minutes (part II), except with the simultaneous treatment, where ether amine and peracid were mixed prior to treatment and the exposure time was 5 minutes.

C. Diff. AATCC 43598 [3] = assay: Glass surface, room temperature (Example 3); type: cell-based, Clostridium difficile; conditions: TABLE 5, room temperature (approximately 23° C.), ether amine 0 ppm 10 min, peracid 1000 ppm 5 min
Protocol: as §2
(§3) The treatment described above for Example 1 was applied to glass squares (5 mm×5 mm) in a first part of the experiment, where the first exposure time was 10 minutes (part I) and the second exposure time was 5 minutes (part II). In a second part of the experiment, the ether amine and peracid were mixed together prior to treatment, and the exposure time was 15 minutes. Results of the first part of the experiment are shown in TABLE 4A, and of the second part of the experiment in TABLE 4B.
The treatment described in Example 2 was repeated at room temperature (“RT,” approximately 23° C.). Part I was prepared with ether amine DA-1214 and Part II with peroxyacetic acid. The exposure times were 10 min for Part I and 5 min for Part II.

C. Diff. AATCC 43598 [4] = assay: Fabric swatches, consecutive treatment, spore log reduction (Example 1); type: cell-based, Clostridium difficile; conditions: ether amine 0 ppm 10 min, 50° C.
Protocol: Aqueous solutions of ether amine (Part I) and peracid (Part II) were prepared. Ether amine (octyl/decyloxypropyl-1,3-diaminopropane) solution (Part I) was prepared in deionized water and the pH was adjust to 9.0 using glycolic acid. TOMAMINE DA1214 was used as the ether amine. TOMAMINE DA1214 contains about 50-60% by weight of 1,3-Propanediamine, N-[3-(octylocy)propyl] and about 35-40% by weight of 1,3-Propanediamine, N-[3-(decylocy)propyl], and is available from Air Products and Chemicals, Inc., in Allentown, Pa. Peracid (peracetic acid) solution (Part II) was prepared from TSUNAMI° 100 (15 peracetic acid), available from Ecolab Inc., in St Paul, Minn.
as §2
In Example 1, the first exposure time was 10 minutes (Part I) and the second exposure time was 5 minutes (Part II).

spores [5] = assay: Fabric swatches (ASTM E2274), simultaneous treatment, hard water (Example 6); type: cell-based; conditions: TABLE 8; 500 ppm synthetic hard water, pH 10.5 prior to peracid addition; ether amine 0 ppm, peracid 200 ppm; 10 minutes
Protocol: as §1
Treatment of fabric swatches was tested in pH-adjusted hard water. The wash solution contained 500 ppm synthetic hard water, and the pH was adjusted to 10.5 with NaOH prior to peracid addition. After the addition of the peracid, pH of the wash solution was between 7-8. DA-1214 was used as the ether amine and peracetic acid as the peracid.
The log reduction of spores was measured in the wash solution and on the fabric swatch. The reduction of spores was compared to number of spores in the baseline treatment (water only). The combined treatment time was 10 minutes.

C. Diff. AATCC 43598 [6] = assay: Glass surface, consecutive treatment (Example 2); type: cell-based, Clostridium difficile; conditions: TABLE 4A, glass squares, ether amine 0 ppm 10 min
Protocol: as §2, §3

[7] = ether amine 100 ppm, peracid 0 ppm
[8] = TABLE 3A, then peracid 300 ppm 5 min
[9] = TABLE 3A, then peracid 500 ppm 5 min
[10] = TABLE 3C, then peracid 300 ppm 5 min
[11] = ether amine 0 ppm, peracid 200 ppm

For `CC(C)CCCCCCCOCCCN` [PA-14, isodecyloxypropyl amine], the “Fabric Swatch Log Reduction” value (bacterial spores; [7]) was 0.07 and the “Wash Solution Log Reduction” value (bacterial spores; [7]) was 0.17.

In the case of `CCCCCCCC(=O)OO` [POOA, peroxyoctanoic acid], the Carrier log reduction (spores [1]) was 5.35 and the “Wash Solution Log Reduction” value (spores [1]) was 6.00*.

For `CC(=O)OO` [peracid, peracetic acid], the “Log Reduction” value (C. Diff. AATCC 43598 [2]) was 0.85, the “Average Log” value (C. Diff. AATCC 43598 [3]) was greater than 5.48 and the “Average Survivors” value (C. Diff. AATCC 43598 [3]) was >300 × 10^3. For the same compound, the “Log Reduction” value (C. Diff. AATCC 43598 [3]) was less than 1.32, the “Average Log” value (C. Diff. AATCC 43598 [4]; [8]) was 5.36 and the “Average Survivors” value (C. Diff. AATCC 43598 [4]; [8]) was 2.3 × 10^5. The “Log Reduction” value (C. Diff. AATCC 43598 [4]; [8]) was 1.02, the “Average Log” value (C. Diff. AATCC 43598 [4]; [9]) was 3.23 and the “Average Survivors” value (C. Diff. AATCC 43598 [4]; [9]) was 1.7 × 10^3. The “Log Reduction” value (C. Diff. AATCC 43598 [4]; [9]) was 3.15, the “Average Log” value (C. Diff. AATCC 43598 [4]; [10]) was 5.04 and the “Average Survivors” value (C. Diff. AATCC 43598 [4]; [10]) was 1.1 × 10^5. For the same compound, the “Log Reduction” value (C. Diff. AATCC 43598 [4]; [10]) was 0.69, the “Fabric Swatch Log Reduction” value (spores [5]) was 3.01 and the “Wash Solution Log Reduction” value (spores [5]) was 5.30. For the same compound, the Carrier log reduction (spores [1]) was 1.78, the “Wash Solution Log Reduction” value (spores [1]) was 4.40 and the “Average Log” value (C. Diff. AATCC 43598 [6]; then peracid 300 ppm 5 min) was 5.30. For the same compound, the “Average Survivors” value (C. Diff. AATCC 43598 [6]; then peracid 300 ppm 5 min) was 2.0 × 10^5, the “Log Reduction” value (C. Diff. AATCC 43598 [6]; then peracid 300 ppm 5 min) was 1.36 and the “Average Log” value (C. Diff. AATCC 43598 [6]; then peracid 500 ppm 5 min) was 3.38. The “Average Survivors” value (C. Diff. AATCC 43598 [6]; then peracid 500 ppm 5 min) was 2.4 × 10^3, the “Log Reduction” value (C. Diff. AATCC 43598 [6]; then peracid 500 ppm 5 min) was 3.28 and the “Fabric Swatch Log Reduction” value (bacterial spores; [11]) was 2.65. The “Wash Solution Log Reduction” value (bacterial spores; [11]) was 5.33.
